In ChEMBL document CHEMBL3879914, “Inhibitors of central nervous system vasoactive inhibitory peptide receptor 2” (2014):

How the values were obtained:
[1] = target: T1, Vasoactive intestinal polypeptide receptor 2 (Homo sapiens) (UniProt P41587); assay: (§1) Antagonist activity at recombinant human N-terminal signal peptide/FLAG epitope-tagged Rluc8-fused VIPR2 expressed in HEK293 cells assessed as inhibition of VIP-induced human mVenus-beta-arrestin2 binding at 5 uM preincubated for 5 mins with luciferin, coelenterazine H followed by VIP addition measured after 5 mins by BRET assay relative to control; format: cell-based
T1 sequence (whole entry): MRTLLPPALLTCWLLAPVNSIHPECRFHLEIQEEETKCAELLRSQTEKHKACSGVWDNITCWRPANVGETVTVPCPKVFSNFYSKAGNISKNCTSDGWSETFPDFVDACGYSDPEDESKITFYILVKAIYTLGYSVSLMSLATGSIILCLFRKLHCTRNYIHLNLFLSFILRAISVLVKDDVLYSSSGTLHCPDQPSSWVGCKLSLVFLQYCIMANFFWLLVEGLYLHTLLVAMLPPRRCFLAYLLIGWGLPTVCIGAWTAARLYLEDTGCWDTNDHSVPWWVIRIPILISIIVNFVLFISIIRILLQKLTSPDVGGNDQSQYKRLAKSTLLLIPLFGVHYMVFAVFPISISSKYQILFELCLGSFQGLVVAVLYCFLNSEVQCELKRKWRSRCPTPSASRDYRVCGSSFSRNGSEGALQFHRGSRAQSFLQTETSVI

[2] = target: T1, Vasoactive intestinal polypeptide receptor 2 (Homo sapiens); assay: as §1, with “at 1” for “at 5”; format: cell-based
[3] = target: T1, Vasoactive intestinal polypeptide receptor 2 (Homo sapiens); assay: (§2) Antagonist activity at recombinant human N-terminal signal peptide/FLAG epitope-tagged VIPR2 expressed in HEK293 cells co-expressing CAMYEL assessed as inhibition of VIP-induced cAMP accumulation at 0.5 uM preincubated for 5 mins with luciferin, coelenterazine H followed by VIP addition measured after 5 mins by BRET assay relative to control; format: functional, cell-based
[4] = target: T1, Vasoactive intestinal polypeptide receptor 2 (Homo sapiens); assay: as §2, with “5” for “0.5”; format: functional, cell-based
[5] = target: T1, Vasoactive intestinal polypeptide receptor 2 (Homo sapiens); assay: as §2, with “1” for “0.5”; format: functional, cell-based
[6] = target: T1, Vasoactive intestinal polypeptide receptor 2 (Homo sapiens); assay: as §1, with “at 0.5” for “at 5”; format: cell-based

SMILES	inhibition [1] [%]	inhibition [2] [%]	inhibition [3] [%]	inhibition [4] [%]	inhibition [5] [%]	inhibition [6] [%]
CC(C)c1cc(C(C)C)c(S(=O)(=O)NC[C@@H](O)C[C@@H](Cc2ccccc2)C(=O)N[C@H]2c3ccccc3C[C@H]2O)c(C(C)C)c1	8.3	30.9	19.5	90	18.6	29.7 to 49.1
CS(=O)(=O)NC[C@@H](O)C[C@@H](Cc1ccccc1)C(=O)N[C@H]1c2ccccc2C[C@H]1O	23.4	31.6	21.4	18.5	21.9	17.3 to 20.9
O=C(NC[C@@H](O)C[C@@H](Cc1ccccc1)C(=O)N[C@H]1c2ccccc2C[C@H]1O)c1ccccc1[N+](=O)[O-]	26.1	35.1	17.6	9.1	14.3	17.6 to 36.4
O=C(NN1CCCCC1)[C@@H](Cc1ccccc1)C[C@H](O)CNS(=O)(=O)c1ccc([N+](=O)[O-])cc1	4.7	3.3	9.2	6	12.3	-0.9 to 5.35
CC(=O)Nc1ccc(S(=O)(=O)NC[C@H](C[C@@H](Cc2ccccc2)C(=O)N[C@H]2c3ccccc3C[C@H]2OC(C)=O)OC(C)=O)cc1	9.7	0.2	-8.7	-5.8	-8.7	0.5 to 1.95
CCCCNC(=O)[C@H](Cc1ccccc1)C[C@H](O)CNS(=O)(=O)c1ccc([N+](=O)[O-])cc1	13.8	1.9	0.9	5.3	5.1	-5.6 to 9.55
COc1ccc(S(=O)(=O)NC[C@@H](O)C[C@@H](Cc2ccccc2)C(=O)N[C@H]2c3ccccc3C[C@H]2O)cc1	89.4	76.7	33.9	93.8	45.9	54.1 to 91.6
CC(C)(C)c1ccc(S(=O)(=O)NC[C@@H](O)C[C@@H](Cc2ccccc2)C(=O)N[C@H]2c3ccccc3C[C@H]2O)cc1	56.7	18.1	9.7	72.1	13	0
COc1ccc(S(=O)(=O)NC[C@@H](O)C[C@@H](Cc2ccccc2)C(=O)N[C@H]2c3ccccc3C[C@H]2O)cc1OC	32	23.2	21.1	28.2	20.4	10.5 to 30.1
O=C(CCCCl)NC[C@@H](O)C[C@@H](Cc1ccccc1)C(=O)N[C@H]1c2ccccc2C[C@H]1O	21.1	24.3	16.4	15.9	18.2	18.5 to 19.2
CC(C)(C)c1ccc(C(=O)NC[C@@H](O)C[C@@H](Cc2ccccc2)C(=O)N[C@H]2c3ccccc3C[C@H]2O)cc1	7.8	11.3	10.7	23.2	16	15.5 to 16.2
O=C(NCCc1cccc(Cl)c1)[C@H](Cc1ccccc1)C[C@H](O)CNS(=O)(=O)c1ccc([N+](=O)[O-])cc1	-8.6	-7.8	-5.5	7.8	-3.4	-6.7 to -0.4
CC(C)CNc1ccc(S(=O)(=O)NC[C@@H](O)C[C@@H](Cc2ccccc2)C(=O)N[C@H]2c3ccccc3C[C@H]2O)cc1	11.9	5.2	21.6	27.4	16.7	10.2 to 19.6
